# Results taken from PubChem BioAssay AID1117323.
# Calls of active or inactive are those of the source. The rule behind the calls is not given here.
# System: SNU-C1 viability, CellTiter-Glo ATP luminescence
# Assay: SNU-C1 cell viability reduction, dose response, CellTiter-Glo luminescence (AID 1117323)
row,Structure (SMILES),IC50
1,O=C1[O][Bi][O]c2ccccc21,15400 nM (inactive)
2,O=C(O)C1(C(=O)O)CCC1.[NH2-].[NH2-].[Pt+2],> 20000 nM (inactive)
3,CC[C@]1(O)C[C@@H]2CN(CCc3c([nH]c4ccccc34)[C@@](C(=O)OC)(c3cc4c(cc3OC)N(C)[C@H]3[C@@](O)(C(=O)OC)[C@H](OC(C)=O)[C@]5(CC)C=CCN6CC[C@]43[C@@H]65)C2)C1,> 20000 nM (inactive)
4,CC(=O)[O][Hg][c]1ccccc1,192 nM
5,Cc1ccc([N+](=O)[O-])[c]2c1[O][Hg]2,202 nM
6,OCCN1CCN(CC/C=C2/c3ccccc3Sc3ccc(C(F)(F)F)cc32)CC1,1030 nM
7,CCCCCCCCCCCCCC[N+](C)(C)C,5.17 nM
